The nature of one data set: in vitro. The protocol:
A test compound (final concentration 10 μM) was incubated at 37 °C in SGF, SIF, or human plasma for 2, 2, or 4 h, respectively. 100 μL aliquots were taken from each sample and 300 μL of acetonitrile containing an internal standard was added. […] All compounds were tested in triplicate. The percentage of a remaining compound after incubation was determined based on the chromatographic peak area of the sample after incubation and that of time zero (freshly prepared and injected) sample.

A short description of data set [1]: LogD7.4, miniaturized shake flask method. The format is physicochemical. Particulars: 1-octanol / 100 mM sodium phosphate buffer pH 7.4. The procedure:
Coefficients of distribution between 1-octanol and 100 mM sodium phosphate buffer (pH 7.4) were determined by the miniaturized shake flask method. Namely, 5 μL of a 10 mM compound’s solution in DMSO was dissolved in 245 μL of 1-octanol saturated with phosphate buffer. Next, 500 μL of phosphate buffer saturated with 1-octanol was added, followed by mixing for 3 h. […] After that, 50 μL of the octanol phase (top layer) was aspirated and diluted with 500 μL of 1-octanol saturated with phosphate buffer. Then, the remaining octanol phase was removed; 50 μL of the buffer layer was aspirated and diluted with 500 μL of phosphate buffer saturated with 1-octanol. Both the octanol and phosphate buffer samples were analyzed by LC–MS/MS. The distribution coefficient was determined according to the following equation: logD7.4 = log10 (peak area for octanol sample/peak area for buffer sample). […] All compounds were tested in triplicate.

Data set [2] concerns A. baumannii GIMC5509:ABT-52Ts19. In words: MIC of antibiotics alone and with potentiators, clinical isolate.
Experimental: Overnight (ON) culture of a specific strain was grown in the liquid Luria–Bertani nutrient medium (LB broth, BD Difco) for 18 h at 37 °C, with agitation at 180 rpm using an Innova 44R orbital shaker (Eppendorf, Hamburg, Germany). After a certain period, 50 µL of the ON culture was transferred into 5 mL of the LB medium and grown for 3 h at 37 °C with agitation. Growth in the liquid medium was assessed by means of turbidity of the suspension, measured using a Densi-La-Meter II densitometer (Erba Lachema s.r.o., Brno, Czech Republic). Then, the bacterial suspension was diluted to the concentration 10^6 cells/mL with sterile LB and used as a seed culture [38, 39].
For the assessment of MICs, 96-well microtiter plates were utilized at 200 µL of a medium per well. Each well was filled with 100 µL of the seed culture. After that, 10 µL of a solution of each tested synthetic compound (potentiators) was added into each experimental well. Finally, 90 µL of twofold serial dilutions of an antibiotic in a sterile LB was added into individual wells.
As a positive control, we set up wells with 100 µL of the bacterial culture and 100 µL of the sterile LB medium. […] Negative-control wells contained 200 µL of the sterile medium. The plates were incubated in a thermostat for 18–20 h at 37 °C. The bacterial growth was assessed as optical density at 600 nm on a CLARIOstar microplate reader (BMG LABTECH GmbH, Ortenberg, Germany)).
For data set [3], the target named is T1, human cystathionine-γ-lyase (hCSE) (Homo sapiens, UniProt P32929).
T1 construct: His6-TEV (N, cleaved yes); host or cells: E. coli
T1 sequence (P32929 whole entry): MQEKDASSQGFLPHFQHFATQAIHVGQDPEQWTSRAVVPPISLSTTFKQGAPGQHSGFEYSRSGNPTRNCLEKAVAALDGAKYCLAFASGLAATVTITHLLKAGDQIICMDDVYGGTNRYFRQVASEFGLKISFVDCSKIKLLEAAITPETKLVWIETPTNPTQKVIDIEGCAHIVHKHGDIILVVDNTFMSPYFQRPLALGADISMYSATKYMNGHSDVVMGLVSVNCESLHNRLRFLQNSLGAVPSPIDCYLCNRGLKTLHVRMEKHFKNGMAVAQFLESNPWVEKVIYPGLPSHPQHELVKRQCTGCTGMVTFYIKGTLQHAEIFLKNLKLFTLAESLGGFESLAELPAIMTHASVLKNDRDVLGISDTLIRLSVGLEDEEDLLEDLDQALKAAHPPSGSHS
As to the kind of experiment: IC50 assay: inhibition of H2S production by purified hCSE, WSP5 fluorescent probe. The format is biochemical. As to conditions: purified hCSE 0.02 μM, 100 μM L-cysteine, WSP5 probe, mean ± SD; read-out: IC50 biochemical assay hCSE. The gist of the method: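 Purified recombinant enzyme (0.02 μM; E. coli-expressed) preincubated 40 min at 30 °C with inhibitor in 50 mM sodium phosphate pH 8.0, 10 μM PLP, 0.1% Tween 20 and 1.2 μM WSP-5. Started with 100 μM L-cysteine; H2S fluorescence (ex 500/em 530 nm) followed 12 h. IC50 from four-parameter fit, mean of ≥2 experiments.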

Data set [4] in a line: HEK293 cytotoxicity assay (Alamar Blue). The class given is cell-based. Particulars: human, HEK293 cells, HEK293, 72 h.
Where [5] appears, read: A. baumannii GIMC5509:ABT-52Ts19, potentiator 50 µg/mL.

The IC50 is the concentration that gives 50% inhibition. The CC50 is the concentration giving 50% cytotoxicity. In the case of `O=C(O)c1cc2ccccc2n1Cc1cccc2ccccc12` [Compound 2a], the “Stability in human plasma, % Remaining at 4 h” value in “in vitro” (4 h, 10 μM) turned out to be 97.6%. Besides, the share remaining at 4 h, 10 μM in “in vitro” (human, plasma, Stability in human plasma, % Remaining at 4 h) was 97.6 ± 7.95%. In the data set “in vitro” (simulated gi fluid, 2 h, 10 μM), the “Stability in SGF, % Remaining at 2 h” value was 91.9% and the “Stability in SIF, % Remaining at 2 h” value is listed as 104.1%. The amount remaining at 2 h, 10 μM in the data set “in vitro” (simulated gi fluid, Stability in SGF) is 91.9 ± 2.68%. Further, the amount remaining at 2 h, 10 μM in “in vitro” (simulated gi fluid, Stability in SIF) was 104 ± 14.2%. In data set [1] (listed as 2а), the “Measured logD7.4” value amounted to 2.14±0.14. Besides, the “Measured logD7.4” value in data set [1] (listed as lead compound) is given as 1–3. Besides, the “MIC of Tacillin in combination with potentiator” value in data set [2] (A. baumannii GIMC5509:ABT-52Ts19, piperacillin + tazobactam, potentiator 50 µg/mL) was 64 µg/mL. Besides, in data set [2] (setting [5]), the “MIC of Cefepim in combination with potentiator” value came out at 256 µg/mL and the “MIC of Meropenem in combination with potentiator” value worked out at 32 µg/mL. In addition, the IC50 in data set [3] was found to be 251 ± 16.6 µM. In data set [4], this compound gave a CC50 at 72 h of 291 ± 8.11 µM.

Values taken from paper PMC10671052, “Naphthyl-Substituted Indole and Pyrrole Carboxylic Acids as Effective Antibiotic Potentiators—Inhibitors of Bacterial Cystathionine γ-Lyase” (International Journal of Molecular Sciences, 2023).
